According to article PMC5141568 (ACS Medicinal Chemistry Letters, 2015):
“Also recorded” adds a separate entry of the source.

Target: T1, Naegleria Tet1 (NgTet1) (Naegleria gruberi, UniProt D2W6T1)
T1 sequence (D2W6T1 1-321): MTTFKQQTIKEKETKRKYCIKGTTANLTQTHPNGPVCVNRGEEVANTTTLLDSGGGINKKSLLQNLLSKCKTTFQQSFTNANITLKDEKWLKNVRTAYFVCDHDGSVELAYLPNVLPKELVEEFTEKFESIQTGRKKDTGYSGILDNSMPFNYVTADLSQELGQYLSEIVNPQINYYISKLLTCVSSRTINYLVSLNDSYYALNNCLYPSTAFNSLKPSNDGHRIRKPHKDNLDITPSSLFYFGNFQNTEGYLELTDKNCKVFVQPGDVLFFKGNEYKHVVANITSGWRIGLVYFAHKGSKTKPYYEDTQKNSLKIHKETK
Assay: FP competitive binding assay
Conditions: 2.5 and 1.25 mM

Row | SMILES | inhibition at the highest concentrations tested
1 | O=C(O)CC[C@@H](O)C(=O)O [compound 7, D-2-hydroxyglutaric acid] | very slight inhibition

Same assay, conditions: at the concentrations tested (up to 5.0 mM for 8 and 9)

Row | SMILES | competitive displacement of 3 from NgTet1
2 | O=C(O)CCC(=O)C(=O)O [compound 4, α-ketoglutarate] | showed the ability to competitively displace 3
3 | O=C(O)CNC(=O)C(=O)O [compound 5, N-oxalyl glycine] | showed the ability to competitively displace 3
4 | O=C(O)c1ccnc(C(=O)O)c1 [compound 6, pyridine 2,4-dicarboxylic acid] | showed the ability to competitively displace 3
5 | Cc1cn([C@H]2C[C@H](O)[C@@H](CO)O2)c(=O)nc1N [compound 8, 5-methyl-2'-deoxycytidine] | Neither 5mC (8) nor 5hmC (9) showed competitive binding; also recorded: unable to competitively displace 3
6 | Nc1nc(=O)n([C@H]2C[C@H](O)[C@@H](CO)O2)cc1CO [compound 9, 2'-deoxy-5-(hydroxymethyl)cytidine] | Neither 5mC (8) nor 5hmC (9) showed competitive binding; also recorded: unable to competitively displace 3
